From patent US9169252B2 (BRISTOL-MYERS SQUIBB COMPANY, priority 2014, dated 2015)
Like-named read-outs stand apart in the source and are kept apart here.

What was measured:
[1] = tested on: TLR2 induced IL-6 in peripheral blood mononuclear cells (PBMCs); experiment: PBMC TLR2 Induced IL-6 Assay; format: cell-based, human; conditions: IL-6 by ELISA; for IC50: read-out: Cell IC50; for EC50: read-out: Cell EC50
Procedure, shortened: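 Lipoteichoic acid at 10 µg/ml served as TLR2 stimulus for 5 hours, following a 30-minute compound pretreatment at 37° C. Cells were Ficoll-isolated human PBMCs, 250000 cells/well, cultured in RPMI plus 10% heat-inactivated FCS.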

[2] = biological target: IRAK4 (Homo sapiens (Human), UniProt Q9NWZ3); experiment: IRAK4 Inhibition Assay; format: biochemical; conditions: ATP 500 μM, read-out: IRAK4 IC50
Chain of IRAK4 (Q9NWZ3 whole entry, species assumed): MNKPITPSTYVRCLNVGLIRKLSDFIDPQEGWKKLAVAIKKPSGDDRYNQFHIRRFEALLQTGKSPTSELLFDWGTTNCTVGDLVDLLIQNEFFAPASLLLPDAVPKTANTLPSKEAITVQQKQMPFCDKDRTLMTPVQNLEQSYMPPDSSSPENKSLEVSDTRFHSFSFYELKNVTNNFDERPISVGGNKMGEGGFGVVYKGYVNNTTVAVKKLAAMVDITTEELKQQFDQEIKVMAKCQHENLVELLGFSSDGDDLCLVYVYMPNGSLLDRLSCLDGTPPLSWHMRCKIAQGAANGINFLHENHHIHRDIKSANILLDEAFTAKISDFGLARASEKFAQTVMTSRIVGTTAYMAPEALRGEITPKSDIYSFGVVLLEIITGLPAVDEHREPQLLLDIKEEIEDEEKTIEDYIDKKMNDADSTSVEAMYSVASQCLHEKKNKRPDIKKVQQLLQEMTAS
Procedure, shortened: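 Mobility-shift readout: fluorescent substrate and phosphoproduct resolved electrophoretically on Caliper LabChip 3000 after EDTA quench (35 mM). Enzyme reaction of IRAK4, substrates and test compound ran 60 min at room temperature.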

[3] = Homo sapiens, PBMC, PBMC TLR2 Induced IL-6 Assay, lipoteichoic acid stimulation
[4] = Homo sapiens, PBMC, human PBMCs, lipoteichoic acid stimulated

| IC50 ([2]; IRAK4 Inhibition Assay) | IC50 ([2]; IRAK4 0.6 nM) | Compound | EC50 [1, 3] | further results |
| --- | --- | --- | --- | --- |
| 0.0056 µM |  | CC(C)CCNC(=O)c1cnc(-n2ncc3cc(C#N)cnc32)cc1N[C@@H](C)CO [Example 320] |  | IC50 [1, 3]: 0.261 µM |
| 0.0133 µM |  | CNC(=O)[C@H]1CC[C@H](NC(=O)c2cnc(-n3ccc4cc(C#N)cnc43)cc2NC2CC2)CC1 [Example 85, 6-(5-cyano-1H-pyrrolo[2,3-b]pyridin-1-yl)-4-(cyclopropylamino)-N-((trans)-4-(methylcarbamoyl)cyclohexyl) nicotinamide] | 0.523 µM |  |
| 0.0026 µM |  | CC(C)Nc1cc(-n2ncc3cc(C#N)cnc32)ncc1C(=O)NCCC1CCN(C)CC1 [Example 266] |  | IC50 [1, 3]: 0.073 µM |
| 0.0025 µM |  | CC(C)Nc1cc(-n2cnc3cnc(NCCO)nc32)ncc1C(=O)NC[C@@H](F)C(C)(C)O [Example 172, (R)—N-(2-Fluoro-3-hydroxy-3-methylbutyl)-6-(2-((2-hydroxyethyl)amino)-9H-purin-9-yl)-4-(isopropylamino)nicotinamide] |  | IC50 [1, 3]: 10 µM |
| 0.0038 µM |  | [2H]C([2H])([2H])NC(=O)[C@H]1CC[C@H](NC(=O)c2cnc(-n3ncc4cc(C#N)cnc43)cc2NC(C)C)CC1 [Example 162, 6-(5-cyano-1H-pyrazolo[3,4-b]pyridin-1-yl)-4-(isopropylamino)-N-((trans)-4-((^2H3)methylcarbamoyl)cyclohexyl)nicotinamide] | 0.129 µM |  |
| 0.0047 µM |  | CC(C)Nc1cc(-n2ncc3cc(C#N)cnc32)ncc1C(=O)NCCc1cccnc1 [Example 276] |  | IC50 [1, 3]: 0.38 µM |
|  | 0.01 µM | CC(C)Nc1cc(-n2ncc3cc(C#N)cnc32)ncc1C(=O)NC1CCN(C(=O)C2CN(S(C)(=O)=O)C2)CC1 [Example 584] |  | EC50 [1, 4]: 0.209 µM; IC50 [1, 4]: 0.508 µM |
|  | 0.0028 µM | CCCOC(=O)NCc1cnc2c(ccn2-c2cc(NC(C)C)c(C(=O)NC[C@@H](F)C(C)(C)O)cn2)c1 [Example 508] |  | IC50 [1, 4]: 0.224 µM |
| 0.0119 µM |  | CC(C)(O)[C@H](F)CNC(=O)c1cnc(-n2ncc3cc(C#N)cnc32)cc1NCC(F)(F)F [Example 147, (R)-6-(5-cyano-1H-pyrazolo[3,4-b]pyridin-1-yl)-N-(2-fluoro-3-hydroxy-3-methylbutyl)-4-((2,2,2-trifluoroethyl)amino)nicotinamide] | 0.338 µM |  |
|  | 0.0132 µM | CCN(CC)C(=O)NCc1cnc2c(ccn2-c2cc(NC(C)C)c(C(=O)NC[C@@H](F)C(C)(C)O)cn2)c1 [Example 500] |  | IC50 [1, 4]: 0.546 µM |
|  | 0.0034 µM | CC(C)(O)[C@H](F)CNC(=O)c1cnc(-n2ncc3cc(F)cnc32)cc1NC1CCC(F)C1 (stereo partly drawn) [Example 620] |  | EC50 ([1]; human PBMCs, lipoteichoic acid stimulated): 0.114 µM |
|  | 0.0054 µM | CCOC(=O)NCc1cnc2c(ccn2-c2cc(NC(C)C)c(C(=O)NC[C@@H](F)C(C)(C)O)cn2)c1 [Example 501] |  | IC50 [1, 4]: 0.332 µM |
| 0.0029 µM |  | CC(C)(O)[C@H](F)CNC(=O)c1cnc(-n2ncc3cc(C#N)cnc32)cc1NC1CC1 [Example 139, (R)-6-(5-cyano-1H-pyrazolo[3,4-b]pyridin-1-yl)-4-(cyclopropylamino)-N-(2-fluoro-3-hydroxy-3-methylbutyl)nicotinamide] | 0.118 µM |  |
|  | 0.0034 µM | CC(C)CCNC(=O)c1cnc(-n2ncc3cc(C#N)c(N)nc32)cc1NC1COC1 [Example 560] |  | IC50 [1, 4]: 0.254 µM |
|  | 0.004 µM | CC(C)(O)[C@H](F)CNC(=O)c1cnc(-n2ncc3cc(C#N)cnc32)cc1N[C@H]1CC[C@@](C)(O)CC1 [Example 607] |  | EC50 [1, 4]: 0.332 µM |
|  | 0.0068 µM | CC(C)(O)[C@H](F)CNC(=O)c1cnc(-n2ncc3cc(C#N)cnc32)cc1N[C@@H]1CCN(c2ncccn2)C1 [Example 537] |  | EC50 [1, 4]: 0.159 µM |
| 0.0023 µM |  | CC(C)(O)[C@H](F)CNC(=O)c1cnc(-n2ccc3cc(C#N)cnc32)cc1NCC(F)(F)F [Example 5, (R)-6-(5-cyano-1H-pyrrolo[2,3-b]pyridin-1-yl)-N-(2-fluoro-3-hydroxy-3-methylbutyl)-4-((2,2,2-trifluoroethyl)amino)nicotinamide] | 0.078 µM | IC50 [1, 3]: 0.095 µM |
| 0.0036 µM |  | CC(C)Nc1cc(-n2ncc3cc(C#N)cnc32)ncc1C(=O)NCC(F)C1(O)COC1 (stereo not drawn) [Example 248] |  | IC50 ([1]; PBMC TLR2 Induced IL-6 Assay, lipoteichoic acid stimulation): 0.554 µM |
| 0.0136 µM |  | CC(C)(O)CNc1cc(-n2ccc3cncnc32)ncc1C(=O)NC[C@@H](F)C(C)(C)O [Example 42, (R)—N-(2-fluoro-3-hydroxy-3-methylbutyl)-4-((2-hydroxy-2-methylpropyl)amino)-6-(7H-pyrrolo[2,3-d]pyrimidin-7-yl)nicotinamide] | 0.612 µM | IC50 [1, 3]: 0.94 µM |
|  | 0.0052 µM | CC(C)Nc1cc(-n2ccc3cc(C#N)cnc32)ncc1C(=O)NCCNS(=O)(=O)N1CCOCC1 [Example 452] |  | EC50 [1, 4]: 0.7 µM; IC50 [1, 4]: 0.252 µM |
| 0.0075 µM |  | CC(C)Nc1cc(-n2ccc3cc(C#N)cnc32)ncc1C(=O)NCCNC(=O)C(C)(C)O [Example 126, 6-(5-Cyano-1H-pyrrolo[2,3-b]pyridin-1-yl)-N-(2-(2-hydroxy-2-methylpropanamido)ethyl)-4-(isopropylamino)nicotinamide] | 0.15 µM |  |
| 0.0036 µM |  | CNC(=O)c1cccc(Nc2cc(-n3ccc4cc(C#N)cnc43)ncc2C(=O)NC[C@@H](F)C(C)(C)O)c1 [Example 55, (R)-6-(5-cyano-1H-pyrrolo[2,3-b]pyridin-1-yl)-N-(2-fluoro-3-hydroxy-3-methylbutyl)-4-((3-(methylcarbamoyl)phenyl)amino)nicotinamide] | 0.513 µM |  |
| 0.0017 µM |  | CCn1cc(Nc2cc(-n3ncc4cc(Cl)cnc43)ncc2C(=O)NC[C@@H](F)C(C)(C)O)cn1 [Example 357] |  | IC50 [1, 3]: 0.067 µM |
| 0.0021 µM |  | CC(C)(O)[C@H](F)CNC(=O)c1cnc(-n2ccc3cc(C#N)cnc32)cc1Nc1cnn(CC(F)(F)F)c1 [Example 371] |  | IC50 [1, 3]: 0.045 µM |
| 0.0018 µM |  | CC(C)(O)[C@H](F)CNC(=O)c1cnc(-n2ccc3cc(C#N)cnc32)cc1Nc1ccc(C(N)=O)cc1 [Example 60, (R)-4-((4-carbamoylphenyl)amino)-6-(5-cyano-1H-pyrrolo[2,3-b]pyridin-1-yl)-N-(2-fluoro-3-hydroxy-3-methylbutyl)nicotinamide] | 0.024 µM |  |
|  | 0.0028 µM | CC(C)(O)[C@H](F)CNC(=O)c1cnc(-n2ncc3cc(C#N)cnc32)cc1NC12CCC(O)(CC1)C2 [Example 613] |  | EC50 [1, 4]: 0.157 µM; IC50 [1, 4]: 0.13 µM |
|  | 0.0078 µM | CCCCNC(=O)c1cnc(-n2ncc3cc(C#N)cnc32)cc1NC1COC1 [Example 561] |  | IC50 [1, 4]: 0.321 µM |
| 0.0013 µM |  | CC(C)(O)[C@H](F)CNC(=O)c1cnc(-n2ccc3cc(C#N)cnc32)cc1N[C@H]1CC[C@@](C)(O)CC1 [Example 61, 6-(5-cyano-1H-pyrrolo[2,3-b]pyridin-1-yl)-N—((R)-2-fluoro-3-hydroxy-3-methylbutyl)-4-(((1s,4S)-4-hydroxy-4-methylcyclohexyl)amino)nicotinamide] | 0.034 µM |  |
|  | 0.0019 µM | CC(C)(O)[C@H](F)CNC(=O)c1cnc(-n2ccc3cc(C#N)cnc32)cc1Nc1cccc(S(N)(=O)=O)c1 [Example 416] |  | EC50 [1, 4]: 0.058 µM |
